Results taken from US12448375B2, “Kinase inhibitors for the treatment of neurodegenerative diseases” (Ohio State Innovation Foundation, priority 2019, dated 2025).

Legend:
Assay type in all cases: biochemical
Conditions in all cases: HotSpot radiometric assay, 33P-ATP
JNK1 = molecular target: T1, JNK1 (Homo sapiens, UniProt P45983); assay: HotSpot Kinase Assay, JNK1
T1 construct: purchased Reaction Biology Corp
Description: (§1) The anti-JNK3 activity of compounds prepared as in the previous examples was evaluated using a Reaction Biology Corp. HotSpot Kinase Assay. Base reaction buffer was 20 mM HEPES (4-(2-hydroxyethyl)-1-piperazineethanesulfonic acid) at pH 7.5 with 10 mM MgCl2, 1 mM EGTA (ethylene glycol-bis(β-aminoethyl ether)-N,N,N′,N′-tetracetic acid), 0.02% Brij™ 35, 0.02 mg/mL BSA (bovine serum albumin), 0.1 mM Na3VO4, 2 mM DTT (dithiothreitol), and 1% DMSO. Required cofactors were added individually to each kinase reaction.
(§2) Activity against related enzymes JNK1 and P38a was further assessed using the same assay.

p38a = molecular target: T2, p38a (Homo sapiens, UniProt Q16539); assay: HotSpot Kinase Assay, P38a
T2 construct: purchased Reaction Biology Corp
Description: as §1, §2

JNK3 = molecular target: T3, JNK3 (Homo sapiens, UniProt P53779); assay: HotSpot Kinase Assay (Reaction Biology Corp.), anti-JNK3 activity
T3 construct: purchased Reaction Biology Corp
Description: as §1, §2

T1 sequence (P45983 whole entry): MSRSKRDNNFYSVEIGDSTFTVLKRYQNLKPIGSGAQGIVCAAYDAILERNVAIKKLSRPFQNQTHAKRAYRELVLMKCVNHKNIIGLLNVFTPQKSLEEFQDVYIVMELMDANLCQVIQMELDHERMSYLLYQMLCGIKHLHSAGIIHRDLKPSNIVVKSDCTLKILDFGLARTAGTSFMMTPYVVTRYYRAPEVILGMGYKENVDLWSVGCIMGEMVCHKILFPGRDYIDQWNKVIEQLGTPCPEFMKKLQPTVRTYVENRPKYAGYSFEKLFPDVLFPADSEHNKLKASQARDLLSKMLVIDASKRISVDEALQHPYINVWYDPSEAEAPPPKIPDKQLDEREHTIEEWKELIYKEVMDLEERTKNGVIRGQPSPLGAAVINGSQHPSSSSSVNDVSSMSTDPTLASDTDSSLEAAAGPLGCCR
T3 sequence (P53779 whole entry): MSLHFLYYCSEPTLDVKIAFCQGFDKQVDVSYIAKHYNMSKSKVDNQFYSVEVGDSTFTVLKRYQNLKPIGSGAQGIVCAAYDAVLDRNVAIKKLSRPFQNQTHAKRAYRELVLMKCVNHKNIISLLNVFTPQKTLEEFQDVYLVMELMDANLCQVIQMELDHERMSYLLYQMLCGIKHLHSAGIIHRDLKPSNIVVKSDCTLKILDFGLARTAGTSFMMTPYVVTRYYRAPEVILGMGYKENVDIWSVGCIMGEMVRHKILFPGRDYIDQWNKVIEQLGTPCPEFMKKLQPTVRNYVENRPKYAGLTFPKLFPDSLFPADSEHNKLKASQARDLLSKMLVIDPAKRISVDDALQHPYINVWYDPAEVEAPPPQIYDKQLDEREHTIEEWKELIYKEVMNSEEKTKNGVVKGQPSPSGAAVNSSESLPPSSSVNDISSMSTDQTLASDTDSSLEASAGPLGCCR
T2 sequence (Q16539 whole entry): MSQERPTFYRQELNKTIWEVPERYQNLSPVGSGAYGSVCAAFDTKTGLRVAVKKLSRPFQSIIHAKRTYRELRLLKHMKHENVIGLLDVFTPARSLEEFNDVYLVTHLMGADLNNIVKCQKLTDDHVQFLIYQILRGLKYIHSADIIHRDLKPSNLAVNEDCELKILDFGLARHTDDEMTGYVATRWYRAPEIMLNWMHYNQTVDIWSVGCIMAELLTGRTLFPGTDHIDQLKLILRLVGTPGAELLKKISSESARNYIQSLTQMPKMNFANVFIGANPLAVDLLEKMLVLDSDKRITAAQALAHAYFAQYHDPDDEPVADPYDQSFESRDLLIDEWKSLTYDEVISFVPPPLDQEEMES

Row | SMILES | IC50 (JNK1) [nM] | IC50 (p38a) [nM] | IC50 (JNK3) [nM]
1 | CC(C)NC(=O)c1cc(-n2ncc3cc(Oc4ccccc4Cl)ncc32)cs1 [Compound 7, 4-(5-(2-chlorophenoxy)-1H-pyrazolo[3,4-c]pyridine-1-yl)-N-isopropylthiophene-2-carboxamide] | > 1000 | > 1000 | < 200
2 | O=C(NC1CN(C2CC2)C1)c1cc(-n2ncc3cc(Oc4ccccc4Cl)ccc32)cs1 [Compound 10, 4-(5-(2-chlorophenoxy)-1H-indazol-1-yl)-N-(1-cyclopropylazetidin-3-yl)thiophene-2-carboxamide] | > 1000 | 200 to 1000 | < 200
3 | O=C(NC1COC1)c1cc(-n2ncc3cc(Oc4ccccc4Cl)ccc32)cs1 [Compound 11, 4-(5-(2-chlorophenoxy)-1H-indazol-1-yl)-N-(oxetan-3-yl)thiophene-2-carboxamide] | > 1000 | > 1000 | < 200
4 | COCC(COC)NC(=O)c1cc(-n2ncc3cc(Oc4ccccc4Cl)ncc32)cs1 [Compound 12, 4-(5-(2-chlorophenoxy)-1H-pyrazolo[3,4-c]pyridin-1-yl)-N-(1,3-dimethoxypropan-2-yl)thiophene-2-carboxamide] | > 1000 | > 1000 | 200 to 1000
5 | [2H]C([2H])([2H])N1CC[C@@H](NC(=O)c2cc(-n3ncc4cc(Oc5ccccc5Cl)ccc43)cs2)C1 [Compound 13, (R)-4-(5-(2-chlorophenoxy)-1H-indazol-1-yl)-N-(1-(methyl-d3)pyrrolidin-3-yl)thiophene-2-carboxamide] | > 1000 | 200 to 1000 | < 200
6 | COCCNC(=O)c1cc(-n2ncc3cc(Oc4ccccc4Cl)ncc32)cs1 [Compound 14, 4-(5-(2-chlorophenoxy)-1H-pyrazolo[3,4-c]pyridin-1-yl)-N-(2-methoxyethyl)thiophene-2-carboxamide] | > 1000 | > 1000 | < 200
7 | CNC(=O)c1cc(-n2ncc3cc(Oc4ccccc4Cl)ncc32)cs1 [Compound 15, 4-(5-(2-chlorophenoxy)-1H-pyrazolo[3,4-c]pyridin-1-yl)-N-methylthiophene-2-carboxamide] |  |  | < 200
8 | CC(C)NC(=O)c1cc(-n2ncc3cc(Nc4ccccc4Cl)ncc32)cs1 [Compound 16, 4-(5-((2-chlorophenyl)amino)-1H-pyrazolo[3,4-c]pyridin-1-yl)-N-isopropylthiophene-2-carboxamide] | 200 to 1000 | 200 to 1000 | < 200
9 | COCCNC(=O)c1cc(-n2ncc3cc(Nc4ccccc4Cl)ncc32)cs1 [Compound 17, 4-(5-((2-chlorophenyl)amino)-1H-pyrazolo[3,4-c]pyridin-1-yl)-N-(2-methoxyethyl)thiophene-2-carboxamide] | 200 to 1000 | < 200 | < 200
10 | CCNC(=O)c1cc(-n2ncc3cc(Oc4ccccc4Cl)ncc32)cs1 [Compound 18, 4-(5-(2-chlorophenoxy)-1H-pyrazolo[3,4-c]pyridin-1-yl)-N-ethylthiophene-2-carboxamide] |  |  | < 200
11 | Cn1cnc(NC(=O)c2cc(-n3ncc4cc(Nc5ccccc5Cl)ncc43)cs2)c1 [Compound 19, 4-(5-((2-chlorophenyl)amino)-1H-pyrazolo[3,4-c]pyridin-1-yl)-N-(1-methyl-1H-imidazol-4-yl)thiophene-2-carboxamide] |  |  | < 200
12 | O=C(NC1COC1)c1cc(-n2ncc3cc(Nc4ccccc4Cl)ncc32)cs1 [Compound 20, 4-(5-((2-chlorophenyl)amino)-1H-pyrazolo[3,4-c]pyridin-1-yl)-N-(oxetan-3-yl)thiophene-2-carboxamide] |  |  | < 200
13 | CN1CCN=C1NC(=O)c1cc(-n2ncc3cc(Nc4ccccc4Cl)ncc32)cs1 [Compound 21, 4-(5-((2-chlorophenyl)amino)-1H-pyrazolo[3,4-c]pyridin-1-yl)-N-(1-methyl-4,5-dihydro-1H-imidazol-2-yl)thiophene-2-carboxamide] |  |  | < 200
14 | CC(=O)N1CC(NC(=O)c2cc(-n3ncc4cc(Nc5ccccc5Cl)ncc43)cs2)C1 [Compound 22, N-(1-acetylazetidin-3-yl)-4-(5-((2-chlorophenyl)amino)-1H-pyrazolo[3,4-c]pyridin-1-yl)thiophene-2-carboxamide] |  |  | < 200
15 | O=C(NC1COC1)c1cc(-n2ncc3cc(Oc4ccccc4Cl)ncc32)cs1 [Compound 23, 4-(5-(2-chlorophenoxy)-1H-pyrazolo[3,4-c]pyridin-1-yl)-N-(oxetan-3-yl)thiophene-2-carboxamide] |  |  | 200 to 1000
16 | CNC(=O)c1cc(-n2ncc3cc(Nc4cccc(F)c4Cl)ncc32)cs1 [Compound 24, 4-(5-((2-chloro-3-fluorophenyl)amino)-1H-pyrazolo[3,4-c]pyridin-1-yl)-N-methylthiophene-2-carboxamide] |  |  | < 200
17 | CCNC(=O)c1cc(-n2ncc3cc(Nc4ccccc4Cl)ncc32)cs1 [Compound 26, 4-(5-((2-chlorophenyl)amino)-1H-pyrazolo[3,4-c]pyridin-1-yl)-N-ethylthiophene-2-carboxamide] |  |  | < 200

Row | SMILES | IC50 (JNK1) [nM] | IC50 (p38a) [nM] | IC50 (JNK3) [nM]
18 | O=C(NC1CNC1)c1cc(-n2ncc3nc(Nc4ccccc4Cl)ncc32)cs1 [Compound 27, N-(azetidin-3-yl)-4-(5-((2-chlorophenyl)amino)-1H-pyrazolo[4,3-d]pyrimidin-1-yl)thiophene-2-carboxamide] | > 1000 | > 1000 | > 1000
19 | CC(=O)N1CC(NC(=O)c2cc(-n3ncc4cc(Nc5ccccc5Cl)ccc43)cs2)C1 [Compound 29, N-(1-acetylazetidin-3-yl)-4-(5-((2-chlorophenyl)amino)-1H-indazol-1-yl)thiophene-2-carboxamide] |  |  | < 200
20 | O=C(NC1CC1)c1cc(-n2ncc3cc(Nc4ccccc4Cl)c(F)cc32)cs1 [Compound 31, 4-(5-((2-chlorophenyl)amino)-6-fluoro-1H-indazol-1-yl)-N-cyclopropylthiophene-2-carboxamide] | < 200 | < 200 | < 200
21 | COC(=O)N1CC(NC(=O)c2cc(-n3ncc4cc(Nc5ccccc5Cl)ccc43)cs2)C1 [Compound 33, Methyl 3-(4-(5-((2-chlorophenyl)amino)-1H-indazol-1-yl)thiophene-2-carboxamido)azetidine-1-carboxylate] |  |  | < 200
22 | CNC(=O)c1cc(-n2ncc3nc(Nc4ccccc4Cl)ncc32)cs1 [Compound 41, 4-(5-((2-chlorophenyl)amino)-1H-pyrazolo[4,3-d]pyrimidin-1-yl)-N-methylthiophene-2-carboxamide] |  |  | 200 to 1000
23 | O=C(NCCCF)c1cc(-n2ncc3nc(Nc4ccccc4Cl)ncc32)cs1 [Compound 42, 4-(5-((2-chlorophenyl)amino)-1H-pyrazolo[4,3-d]pyrimidin-1-yl)-N-(3-fluoropropyl)thiophene-2-carboxamide] |  |  | < 200
24 | O=C(NC1=NCCO1)c1cc(-n2ncc3cc(Nc4ccccc4Cl)c(F)cc32)cs1 [Compound 43, 4-(5-((2-chlorophenyl)amino)-6-fluoro-1H-indazol-1-yl)-N-(4,5-dihydrooxazol-2-yl)thiophene-2-carboxamide] |  |  | < 200
25 | CN1CCN=C1NC(=O)c1cc(-n2ncc3cc(Nc4ccccc4Cl)ccc32)cs1 [Compound 45, 4-(5-((2-chlorophenyl)amino)-1H-indazol-1-yl)-N-(1-methyl-4,5-dihydro-1H-imidazol-2-yl)thiophene-2-carboxamide] |  |  | < 200
26 | N#CCNC(=O)c1cc(-n2ncc3cc(Nc4ccccc4Cl)ccc32)cs1 [Compound 46, 4-(5-((2-chlorophenyl)amino)-1H-indazol-1-yl)-N-(cyanomethyl)thiophene-2-carboxamide] |  |  | < 200
27 | O=C(N[C@H]1CCOC1)c1cc(-n2ncc3nc(Nc4ccccc4Cl)ccc32)cs1 [Compound 51, (S)-4-(5-((2-chlorophenyl)amino)-1H-pyrazolo[4,3-b]pyridin-1-yl)-N-(tetrahydrofuran-3-yl)thiophene-2-carboxamide] |  |  | < 200
28 | Cn1cnc(NC(=O)c2cc(-n3ncc4nc(Nc5ccccc5Cl)ccc43)cs2)c1 [Compound 57, 4-(5-((2-chlorophenyl)amino)-1H-pyrazolo[4,3-b]pyridin-1-yl)-N-(1-methyl-1H-imidazol-4-yl)thiophene-2-carboxamide] |  |  | < 200
29 | Cn1ccnc1NC(=O)c1cc(-n2ncc3nc(Nc4ccccc4Cl)ccc32)cs1 [Compound 59, 4-(5-((2-chlorophenyl)amino)-1H-pyrazolo[4,3-b]pyridin-1-yl)-N-(1-methyl-1H-imidazol-2-yl)thiophene-2-carboxamide] |  |  | 200 to 1000
30 | CN1C[C@@H](NC(=O)c2cc(-n3ncc4nc(Nc5ccccc5Cl)ccc43)cs2)CC1=O [Compound 60, (S)-4-(5-((2-chlorophenyl)amino)-1H-pyrazolo[4,3-b]pyridin-1-yl)-N-(1-methyl-5-oxopyrrolidin-3-yl)thiophene-2-carboxamide] |  |  | < 200
31 | Cn1cnc(NC(=O)c2cc(-n3ncc4cc(Nc5ccccc5Cl)cnc43)cs2)c1 [Compound 66, 4-(5-((2-chlorophenyl)amino)-1H-pyrazolo[3,4-b]pyridin-1-yl)-N-(1-methyl-1H-imidazol-4-yl)thiophene-2-carboxamide] |  |  | < 200
32 | Cn1ccnc1NC(=O)c1cc(-n2ncc3cc(Nc4ccccc4Cl)cnc32)cs1 [Compound 67, 4-(5-((2-chlorophenyl)amino)-1H-pyrazolo[3,4-b]pyridin-1-yl)-N-(1-methyl-1H-imidazol-2-yl)thiophene-2-carboxamide] |  |  | < 200
33 | CCNC(=O)c1cc(-n2ncc3cc(Oc4ccccc4Cl)cnc32)cs1 [Compound 73, 4-(5-(2-chlorophenoxy)-1H-pyrazolo[3,4-b]pyridin-1-yl)-N-ethylthiophene-2-carboxamide] |  |  | < 200
